From EPA's ToxValDB 9.5 (doi:10.2903/j.efsa.2013.3461)
In brackets after ≈: the same amount, converted by molar mass.

What was measured:
[1] = system: Anas platyrhynchos; conditions: short-term; oral; feed; mortality
[2] = system: Apis mellifera; conditions: acute, duration: 48 hours, mortality
[3] = system: Bibionidae; conditions: chronic/long-term; duration: 28 days; development
[4] = system: Canidae; conditions: oral, Dog Other, hematological
[5] = system: Colinus virginianus
[6] = system: Daphnia magna; conditions: chronic/long-term; duration: 21 days; reproduction
[7] = system: Oncorhynchus mykiss
[8] = system: Rattus norvegicus; conditions: for LD50: acute, oral, mortality
[9] = system: Tagia sp.

Row | SMILES | LC50 [1] [mg/kg-day] | LD50 ([2]; dermal) [µg/piece] | LD50 ([2]; oral, unspecified) [µg/piece] | NOEC [3] [mg/kg] | NOAEL ([4]; chronic, duration: 52 weeks) [mg/kg-day] | NOAEL ([4]; subchronic, duration: 90 days) [mg/kg-day] | LC50 ([5]; acute, oral, diet, mortality) [mg/kg-day] | LD50 ([5]; acute, oral, mortality) [mg/kg] | NOEC ([5]; reproduction developmental, reproduction) [mg/kg-day] | NOEC [6] [mg/L] | LC50 ([7]; acute, duration: 96 hours, mortality) [µg/mL] | NOEC ([7]; chronic/long-term, duration: 28 days, growth) [mg/L] | LD50 [8] [mg/kg] | NOEL ([8]; reproduction developmental, histopathology: nonneoplastic) [mg/kg-day] | LC50 ([9]; acute, duration: 14 days, mortality) [mg/kg] | NOEC ([9]; chronic/long-term, duration: 8 weeks, reproduction) [mg/kg]
1 | Cc1cc(C)cc(C(=O)N(NC(=O)c2ccc3c(c2C)CCCO3)C(C)(C)C)c1 [Chromafenozide] | > 2160 | > 100 | > 133 | 0.047 | 27 | 52 | > 1840 | > 2000 | 79 | 0.84 | 4.5 (≈ 11.4 µM) | 0.96 | > 5000 | 128 | > 1000 | 49
2 | Cc1cc(C)cc(C(=O)N(NC(=O)c2ccc3c(c2C)C(O)CCO3)C(C)(C)C)c1 (configuration not stated) [Chromafenozide metabolite (M 010)] | – | – | – | – | – | – | – | – | – | – | – | – | > 2000 | – | – | –
